Data: article PMC8161026, “Synthesis and Anticancer Activity Evaluation of 5-[2-Chloro-3-(4-nitrophenyl)-2-propenylidene]-4-thiazolidinones” (Molecules, 2021)

What was measured:
U251 = U251 (CNS Cancer), 48 h, SRB
SW-620 = assay: cells; conditions: Homo sapiens, SW-620, 48 h; for CC50: read-out: LC50
RPMI-8226 = conditions: for TI (Therapeutic Index): GI50 (normal blood lymphocyte)/GI50 (RPMI-8226); for TGI: RPMI-8226 (Leukemia), 48 h, SRB
HCT-116 = HCT-116 (Colon Cancer), 48 h, SRB
ACHN = assay: NCI DTP 60 cell line screen, SRB; conditions: 48 h; for TGI: ACHN (Renal Cancer), SRB; for GI50 / CC50: Homo sapiens, ACHN; for CC50: read-out: LC50
LOX IMVI = assay: cells; conditions: Homo sapiens, 48 h; for CC50: read-out: LC50
EKVX = EKVX (Non-Small Cell Lung Cancer), 48 h, SRB
HL-60(TB) = assay: cells; conditions: Homo sapiens, HL-60, 48 h
NCI-H460 = assay: cells; conditions: Homo sapiens, NCI-H460, 48 h; for CC50: read-out: LC50
T-47D = assay: cells; conditions: Homo sapiens, T47D, 48 h; for CC50: read-out: LC50
OVCAR-3 = assay: NCI DTP 60 cell line screen, SRB; conditions: for GI50 / CC50: Homo sapiens, OVCAR-3, 48 h; for CC50: read-out: LC50; for TGI: OVCAR-3 (Ovarian Cancer), 48 h, SRB
NCI-H23 = NCI-H23 (Non-Small Cell Lung Cancer), 48 h, SRB
SF-539 = assay: NCI DTP 60 cell line screen, SRB; conditions: for GI50 / CC50: Homo sapiens, SF-539, 48 h; for CC50: read-out: LC50; for TGI: SF-539 (CNS Cancer), 48 h, SRB
M14 = assay: NCI DTP 60 cell line screen, SRB; conditions: for GI50 / CC50: Homo sapiens, M14, 48 h; for CC50: read-out: LC50; for TGI: M14 (Melanoma), 48 h, SRB
SK-OV-3 = assay: NCI DTP 60 cell line screen, SRB; conditions: for GI50 / CC50: Homo sapiens, SK-OV-3, 48 h; for CC50: read-out: LC50; for TGI: SK-OV-3 (Ovarian Cancer), 48 h, SRB
SNB-75 [1] = conditions: SNB-75 (CNS Cancer), 48 h, SRB
SK-MEL-28 = assay: cells; conditions: Homo sapiens, SK-MEL-28, 48 h; for CC50: read-out: LC50
[2] = system: normal human blood lymphocytes; assay: in vitro
Description: (§1) Another part of our study was to determine the influence of compounds 2f, 2i, 2j, and 2h on normal human blood lymphocytes (Figure 5). […] Thus, normal blood lymphocytes are blood cells, as well as cells of leukemia cell lines, therapeutic index (TI) of compounds 2f, 2h, and 2j was calculated as GI50 (normal blood lymphocyte)/GI50 (leukemia cell line) (Table 5).
(§2) Figure 5 Human lymphocyte viability after 48 h of 2f, 2i, 2j, 2h, and Ciminalum drug exposure was estimated by MTT assay.
(§3) The assay was performed by using 3-(4,5-dimethylthiazole-2-yl)- 2,5-diphenyltetrazolium bromide (MTT). Confluent cells, cultured for 24 h with 0.1, 1, 5, 10, 20, 30, and 100 µM concentrations of studied compounds in 24-well plates were washed with PBS. MTT was dissolved in PBS, and 25 µL were added to each well. Plates were incubated for 4 h at 37 °C in 5% CO2 in an incubator. The medium with MTT was removed, and 1 mL of DMSO was added to the attached cells. Furthermore, cells were incubated for 5–10 min in RT and then 10 µl of Sorensen buffer was added to each well. The absorbance of converted dye in living cells was measured at a wavelength of 570 nm. The cell viability of breast cancer cells, gastric cancer cells, and human colon cancer cells cultured in the presence of ligands was calculated as percent of control cells.
(§4) First, 20 mL of venous blood was taken from volunteers (Ethical protocol number 2, 27 January 2019) and collected in the presence of 200 μL of undiluted fresh heparin (1/100). Sterile blood was diluted 2 times with 0.9% NaCl under the sterile conditions. Isolation of lymphocytes was performed in a density gradient of ficol-verografin using the protocol of the manufacturer (Lympoprep, NYCOMED PHARMA AS, Oslo Norway). The resulting lymphocytes were resuspended in the RPMI-1640 medium and cultured for several days (up to 10 days). To separate the lymphocytes from the monocytes, cell suspension was left for 24 h. After 24 h of culture, monocytes were attached, while lymphocytes were transferred to a fresh Falcon tube (15 mL). To stimulate the proliferation of lymphocytes, they were cultured on CD3+ antibody-coated plastic plate in the RPMI-1640 medium supplemented with 20% FBS.

in vitro = conditions: human
Description: as §1, §2, §3, §4

MCF-7 = assay: NCI DTP 60 cell line screen, SRB; conditions: for GI50 / CC50: Homo sapiens, MCF7, 48 h; for CC50: read-out: LC50; for TGI: MCF-7 (Breast Cancer), 48 h, SRB
MDA-MB-231/ATCC = assay: NCI DTP 60 cell line screen, SRB; conditions: for GI50 / CC50: Homo sapiens, MDA-MB-231, 48 h; for CC50: read-out: LC50; for TGI: MDA-MB-231/ATCC (Breast Cancer), 48 h, SRB
SNB-75 [3] = assay: cells; conditions: Homo sapiens, SNB-75, 48 h; for CC50: read-out: LC50
NCI-H226 = assay: NCI DTP 60 cell line screen, SRB
A498 = assay: NCI DTP 60 cell line screen, SRB

O=C1/C(=C/C(Cl)=C/c2ccc([N+](=O)[O-])cc2)SC(=S)N1c1ccc(O)cc1 [Compound 2f, 5-[(Z,2Z)-2-Chloro-3-(4-nitrophenyl)-2-propenylidene]-3-(4-hydroxyphenyl)-2-thioxo-4-thiazolidinone]
TGI (U251): 3.06 µM | GI50 (SW-620): 0.037 µM | CC50 (SW-620): > 100 µM | TI (Therapeutic Index) (RPMI-8226): >10,000 | TGI (RPMI-8226): 0.264 µM | TGI (HCT-116): 2.96 µM | TGI (ACHN): 3.51 µM | GI50 (ACHN): 1.7 µM | CC50 (ACHN): 7.27 µM | GI50 (LOX IMVI): 1.17 µM | CC50 (LOX IMVI): > 100 µM | TGI (EKVX): 16.2 µM | GI50 (HL-60(TB)): 0.485 µM | CC50 (HL-60(TB); read-out: LC50): > 100 µM | GI50 (NCI-H460): 0.754 µM | CC50 (NCI-H460): > 100 µM | GI50 (T-47D): 1.55 µM | CC50 (T-47D): > 100 µM | GI50 (OVCAR-3): 0.977 µM | CC50 (OVCAR-3): > 100 µM | TGI (OVCAR-3): 41.8 µM | TGI (NCI-H23): 3.11 µM | GI50 (SF-539): 0.0252 µM | CC50 (SF-539): 28.1 µM | TGI (SF-539): 0.242 µM | GI50 (M14): 1.9 µM | CC50 (M14): 7.32 µM | TGI (M14): 3.73 µM | GI50 (SK-OV-3): 10.2 µM | CC50 (SK-OV-3): > 100 µM | TGI (SK-OV-3): 41.5 µM | TGI (SNB-75 [1]): > 100 µM | GI50 (SK-MEL-28): 4.49 µM | CC50 (SK-MEL-28): > 100 µM | toxicity toward normal human blood lymphocytes [2]: low toxicity | GI50 at 48 h (in vitro): > 100 µM | GI50 (MCF-7): 0.401 µM | CC50 (MCF-7): > 100 µM | TGI (MCF-7): 28.0 µM | GI50 (MDA-MB-231/ATCC): 2.18 µM | CC50 (MDA-MB-231/ATCC): 92.1 µM | TGI (MDA-MB-231/ATCC): 12.2 µM | GI50 (SNB-75 [3]): 25.1 µM | CC50 (SNB-75 [3]): > 100 µM

O=C(O)C(Cc1ccccc1)N1C(=O)/C(=C/C(Cl)=C/c2ccc([N+](=O)[O-])cc2)SC1=S (centres unmarked) [Compound 2j, 2-{5-[(Z,2Z)-2-Chloro-3-(4-nitrophenyl)-2-propenylidene]-4-oxo-2-thioxothiazolidin-3-yl}-3-phenylpropanoic acid]
TGI (U251): 3.52 µM | GI50 (NCI-H226; Homo sapiens, NCI-H226, 48 h): 1.58 µM | CC50 (NCI-H226; Homo sapiens, NCI-H226, 48 h, read-out: LC50): 6.76 µM | TGI (NCI-H226; NCI-H226 (Non-Small Cell Lung Cancer), 48 h, SRB): 3.27 µM | GI50 (SW-620): 2.1 µM | CC50 (SW-620): > 100 µM | TI (Therapeutic Index) (RPMI-8226): 15.21 | TGI (RPMI-8226): > 100 µM | TGI (HCT-116): 5.47 µM | TGI (ACHN): 3.30 µM | GI50 (ACHN): 1.8 µM | CC50 (ACHN): 6.04 µM | GI50 (LOX IMVI): 1.64 µM | CC50 (LOX IMVI): 6.46 µM | TGI (EKVX): 7.29 µM | GI50 (NCI-H460): 2.19 µM | CC50 (NCI-H460): > 100 µM | GI50 (T-47D): 1.5 µM | CC50 (T-47D): > 100 µM | GI50 (OVCAR-3): 1.76 µM | CC50 (OVCAR-3): 6.98 µM | TGI (OVCAR-3): 3.51 µM | TGI (NCI-H23): 4.86 µM | GI50 (SF-539): 2.74 µM | CC50 (SF-539): > 100 µM | TGI (SF-539): > 100 µM | GI50 (M14): 2.53 µM | CC50 (M14): > 100 µM | TGI (M14): > 100 µM | GI50 (SK-OV-3): 4.13 µM | CC50 (SK-OV-3): > 100 µM | TGI (SK-OV-3): > 100 µM | TGI (SNB-75 [1]): 5.37 µM | GI50 (SK-MEL-28): 2.16 µM | CC50 (SK-MEL-28): 11.6 µM | toxicity toward normal human blood lymphocytes [2]: low toxicity | GI50 at 48 h (in vitro): 49 µM | GI50 (MCF-7): 2.38 µM | CC50 (MCF-7): > 100 µM | TGI (MCF-7): 10.7 µM | TGI (A498; A498 (Renal Cancer), 48 h, SRB): 3.24 µM | GI50 (A498; Homo sapiens, A498, 48 h): 1.65 µM | CC50 (A498; Homo sapiens, A498, 48 h, read-out: LC50): 6.37 µM | GI50 (MDA-MB-231/ATCC): 3.35 µM | CC50 (MDA-MB-231/ATCC): > 100 µM | TGI (MDA-MB-231/ATCC): > 100 µM | GI50 (SNB-75 [3]): 1.96 µM | CC50 (SNB-75 [3]): > 100 µM
